Laboratory results taken from ChEMBL document CHEMBL1142631, “Potential antitumor-promoting diterpenoids from the stem bark of Picea glehni” (J Nat Prod, 2000).

How the values were obtained:
[1] = Cytotoxicity against human Raji cells assessed as cell viability at 1000 molar ratio/TPA; format: cell-based; details: read-out: Activity
Raji [2] = test: Inhibition of 12-O-tetradecanoylphorbol 13-acetate-induced Epstein-Barr virus early antigen activation in human Raji cells assessed as EA induction at 10 mol ratio relative to TPA; values are per cent of control; details: human gammaherpesvirus 4
Raji [3] = test: Inhibition of 12-O-tetradecanoylphorbol 13-acetate-induced Epstein-Barr virus early antigen activation in human Raji cells assessed as EA induction at 500 mol ratio relative to TPA; values are per cent of control; details: human gammaherpesvirus 4
Raji [4] = test: Inhibition of 12-O-tetradecanoylphorbol 13-acetate-induced Epstein-Barr virus early antigen activation in human Raji cells assessed as EA induction at 100 mol ratio relative to TPA; values are per cent of control; details: human gammaherpesvirus 4
Raji [5] = test: Inhibition of 12-O-tetradecanoylphorbol 13-acetate-induced Epstein-Barr virus early antigen activation in human Raji cells assessed as EA induction at 1000 mol ratio relative to TPA; values are per cent of control; details: human gammaherpesvirus 4

SMILES | viability at 1000 molar ratio/TPA [1] [%] | level, % of control (Raji [2]) [%] | level, % of control (Raji [3]) [%] | level, % of control (Raji [4]) [%] | level, % of control (Raji [5]) [%]
C=C[C@]1(C)CC[C@@H]2[C@@]3(C)CCCC(C)(C)[C@@H]3CC[C@@]2(C)O1 | 70 | 100 | 35.9 | 70.4 | 4.3
CC(C)[C@]12C=C3CC[C@H]4[C@](C)(C(=O)O)CCC[C@]4(C)[C@]3(CC1)OO2 | 70 | 90.5 | 24.2 | 63.7 | 0
CC1=C(/C=C/C(C)=C/C=C/C(C)=C/C=C/C=C(C)/C=C/C=C(C)/C=C/C2=C(C)CCCC2(C)C)C(C)(C)CCC1 |  | 100 | 34 | 82 | 9
CC(=O)/C=C/[C@@H]1[C@@]2(C)CCCC(C)(C)[C@@H]2CC[C@@]1(C)O | 60 | 89.3 | 20.7 | 68.4 | 0
CC(C)c1ccc2c(c1)CC[C@H]1[C@](C)(C(=O)O)CCC[C@]1(C)O2 | 60 | 96.9 | 52.7 | 85 | 10.2
C=C[C@]1(C)CC[C@@H]2[C@@]3(C)CC[C@@H](C)C(=C)[C@@H]3CC[C@@]2(C)O1 | 70 | 100 | 38.8 | 77.1 | 5.1
CC(C)c1ccc2c(c1)C(=O)C[C@H]1C(C)(C)CCC[C@]21C | 70 | 95 | 30.2 | 74.7 | 0
CC(C)c1cc2c(cc1O)[C@@]1(C)CCC[C@@](C)(C(=O)O)[C@@H]1CC2 | 70 | 95.8 | 28 | 66.4 | 2.7
COC(=O)[C@]1(C)CCC[C@]2(C)c3ccc(C(C)(C)O)cc3C(=O)C[C@@H]12 | 70 | 95 | 28.1 | 72.9 | 0
C=C1CCC[C@]2(C)c3ccc(C(C)C)cc3C(=O)C[C@@H]12 | 70 | 96.1 | 31.6 | 75.9 | 0
CC(C)c1ccc2c(c1)CC[C@H]1[C@](C)(C(=O)O)CCC[C@]21C [DEHYDROABIETIC ACID] | 70 | 95.2 | 30.6 | 75 | 0
